Patent US20250341517A1, “SWITCHING PEPTIDE, IMMUNOASSAY DEVICE COMPRISING SAME, AND IMMUNOASSAY METHOD USING SAME” (OPTOLANE TECHNOLOGIES INC., priority 2021, published 2025)
Ends that are not written are not given here. FAM = carboxyfluorescein (FAM) fluorescent label

Columns and labels:
anti-HBsAG antibody [1] = test: Fluorescence immunoassay with FAM switching peptide and TQ2 quenching material (FIGS. 9-12); type: binding; conditions: for fluorescence intensity, antigen selectivity: HBsAg
Source text: FIG. 9 is a graph illustrating a fluorescence intensity measured after reacting an anti-HBSAG antibody to which an H2 switching peptide of Example 2 and a Tide-Quencher 2 (TQ2) quenching material are bound, with HBsAg, Inf A, Inf B (Florida), Inf B (Tokio), and PBS sample solutions, respectively.
FIG. 10 is a graph illustrating a fluorescence intensity measured after reacting the anti-HBsAG antibody to which the H2 switching peptide of Example 2 and the Tide-Quencher 2 (TQ2) quenching material are bound, with detection sample solutions each containing various concentrations of HBsAg antigens.
FIG. 11 is a graph illustrating a fluorescence intensity measured after binding the anti-HBsAG antibody to which the H2 switching peptide of Example 2 and the Tide-Quencher 2 (TQ2) quenching material are bound, to protein A beads and reacting it with detection sample solutions containing various concentrations of the HBsAg antigens.
FIG. 12 is graphs illustrating a fluorescence intensity measured after reacting the anti-HBsAG antibody to which one of the L1, H1, L2 and H2 switching peptides of Example 2 and the TQ2 quenching material is bound, with HRP, CRP, HBsAg, and hCG sample solutions, respectively.

L2 peptide = test: FRET test of specific interaction between H1 and L2 peptides on microplate (FIG. 4A); type: binding; conditions: H1 (TAMRA) and L2 (FAM); H1 concentration varied
Source text: (§1) FIG. 4A is diagrams illustrating a method for confirming a specific interaction between L1 and H2 peptides and a specific interaction between L2 and H1 peptides and the measurement results thereof, and FIG. 4B is diagrams for explaining a specific interaction between L1 and H2 peptides and a specific interaction between L2 and H1 peptides analyzed using PyMOL software. Here, at the ends of the L1 and L2 peptides, a first fluorescent label, FAM (λex=488 nm, λem=532 nm) was modified, and at the ends of the H1 and H2 peptides, a second fluorescent label, TAMRA (ex=532 nm, hem=570 nm) was modified. Meanwhile, the first peptide (L1 or L2) was immobilized on a parylene-H-coated microplate through a covalent bond between a formyl group of parylene-H and a primary amine group of a lysine residue in the peptide, and a second peptide (H2 or H1) was incubated with the immobilized first peptide (L1 or L2) to allow specific interactions between them.

Anti-hCG antibody(m) = test: Release of fluorescently labeled switching peptide from immobilized antibody on antigen binding (Table 4); set-up: species or system mouse
Anti-HRP antibody(r) = test: as above; set-up: species or system rabbit; conditions: after treatment with antigen HRP
Anti-HBsAg antibody(g) = test: as above; set-up: species or system goat; conditions: after treatment with antigen HBsAg
Anti-CRP antibody(r) = test: as above; set-up: species or system rabbit
[2] = tested on: rabbit anti-HRP antibodies; test: Papain treatment of immobilized antibody with bound switching peptide (FIG. 7); type: binding; conditions: after papain treatment compared to before
Source text: FIG. 7A is a schematic diagram illustrating states before and after treatment of the antibody to which the four types of peptides of Example 1 were bound, respectively, with papain, which is a protease, and FIG. 7B is graphs illustrating a fluorescence intensity measured at a bottom (B) of the microplate and in a solution(S) after the papain treatment. In the case of this experiment, after immobilization of the antibodies (rabbit anti-HRP antibodies) on the microplate, binding between the antibody and the switching peptide was induced by treatment with a fluorescently labeled switching peptide, the unbound switching peptide was removed, and then the Fab region was hydrolyzed from the immobilized antibodies by adding papain, which is a protease.
Referring to FIG. 7A, the fluorescence at the bottom (B) of the microplate is expected to decrease after the papain reaction because the fluorescently labeled switching peptides are bound to the Fab region of antibodies, and the fluorescence in the solution is expected to increase because the Fab region to which the switching peptide is bound is hydrolyzed and dissolved into the solution. This prediction is proven to be true from the graphs of FIG. 7B.

[3] = tested on: anti-HRP antibody from a rabbit; test: One-step immunoassay with varying HRP concentration (FIG. 8); type: binding; conditions: HRP 0.3 to 100 μM (FIG. 8B)
Source text: FIG. 8A is a schematic diagram for explaining an immunoassay method using fluorescently labeled peptide compounds of Example 1, and FIGS. 8B and 8C are graphs illustrating the fluorescence intensity in a solution and at a bottom of the microplate depending on a concentration of the antigen measured by the immunoassay method illustrated in FIG. 8A. In this experiment, an anti-HRP antibody from a rabbit immobilized on a microplate was used as the binding antibody and HRP was used as the antigen.

Inf-B = test: One-step immunoassay detection of Inf-B with switching-peptide-bound binding antibody (FIG. 19, 20D); conditions: antibody bound to the peptide, treated with Inf-A, CRP, BSA
Source text: Therefore, an antibody bound to the L1 peptide or the H2 peptide may be used for selective detection of the Inf-B.
Therefore, binding antibodies bound to the two types of peptides may have similar responses upon detection of Inf-A.
In addition, since it can be confirmed that the baseline is maintained in the experiment with CoV strain 229E, which is a negative control, the immunoassay based on the two types of binding antibodies may be used to detect Inf-B in actual samples.
Therefore, the immunoassay device using the switching peptide according to the present disclosure may sensitively detect Inf-B in a much wider detection range than conventional rapid tests, and the one-step immunoassay method according to the present disclosure may be used for much more sensitive detection of Inf-A and Inf-B in the entire detection range compared to conventional rapid tests.

Inf-A = test: One-step immunoassay detection of Inf-A with switching-peptide-bound binding antibody (FIG. 18, 20B); set-up: species or system Influenza A; conditions: anti-Inf-A antibody bound to the peptide, treated with Inf-A, CRP, BSA
anti-inf A antibody = test: Graphene-quenched immunoassay with TAMRA L1 switching peptide (FIG. 14); type: binding; conditions: L1 labeled with TAMRA; graphene quenching material
Source text: FIG. 14 is a graph illustrating a fluorescence intensity measured after binding an anti-inf A antibody to which an L1 switching peptide labeled with a TAMRA fluorescent label is bound, to a graphene quenching material and reacting it with an Influenza A sample solution.

anti-SARS-COV-2 antibody = test: Graphene-quenched immunoassay with TAMRA L1 switching peptide (FIG. 15); type: binding; conditions: L1 labeled with TAMRA; graphene quenching material
Source text: FIG. 15 is a graph illustrating a fluorescence intensity measured after binding an anti-SARS-COV-2 antibody to which an L1 switching peptide labeled with a TAMRA fluorescent label is bound, to a graphene quenching material and reacting it with a SARS-CoV-2 sample solution.

anti-HBsAG antibody [4] = test: Graphene-quenched immunoassay with TAMRA L1 switching peptide (FIG. 13); type: binding; conditions: L1 labeled with TAMRA; graphene quenching material
Source text: FIG. 13 is graphs illustrating a fluorescence intensity measured after binding an anti-HBsAg antibody to which an L1 switching peptide labeled with a TAMRA fluorescent label is bound, to a graphene quenching material and reacting it with an HBsAg sample solution.

H2 peptide = test: FRET test of specific interaction between L1 and H2 peptides on microplate (FIG. 4A); type: binding; conditions: L1 (FAM) and H2 (TAMRA); L1 concentration varied
Source text: as §1

[5] = FAM switching peptides of Example 2, TQ2, HRP, CRP, hCG sample solutions (FIG. 12)

Substance	fluorescence intensity, antigen selectivity (anti-HBsAG antibody [1]; [5])	FRET intensity (L2 peptide)	In solution (S), Change (%) (Anti-hCG antibody(m))	fluorescence intensity at the bottom of the plate decreased by (Anti-HRP antibody(r)) [%]	fluorescence intensity at the bottom of the plate decreased by (Anti-HBsAg antibody(g)) [%]	In solution (S), Change (%) (Anti-CRP antibody(r))	increase of fluorescence intensity in the solution [2]	fluorescence intensity in the solution versus antigen concentration [3]	fluorescence intensity, antigen selectivity (anti-HBsAG antibody [1]; TQ2 quencher, Inf A, Inf B (Florida), Inf B (Tokio), PBS sample solutions (FIG. 9))	fluorescence intensity versus HBsAg concentration (anti-HBsAG antibody [1]; TQ2 quencher, antibody bound to protein A beads (FIG. 11))	specificity for the antigen compared with other switching peptides (anti-HBsAG antibody [1]; FAM switching peptides of Example 2, TQ2 (FIG. 12))	fluorescence signal, selectivity (Inf-B)	fluorescence signal, selectivity (Inf-A)	fluorescence intensity versus Influenza A antigen concentration (anti-inf A antibody)	fluorescence intensity versus SARS-COV-2 antigen concentration (anti-SARS-COV-2 antibody)	fluorescence intensity versus HBsAg concentration (anti-HBsAG antibody [4])	FRET intensity (H2 peptide)
SYWIHWVKQRPGQGLEWIGE [H1, SYWIH WVKQR PGQGL EWIGE]	high intensity fluorescence was measured only for the HBsAg antigen	FRET intensity was observed to increase with increasing the concentration of the H1 peptide	+206%	12.3	41.1	+152%	2,184%	increase in the fluorescence intensity in the solution was observed depending on the concentration of the antigen									
VYYCFQGSHVPFTK [L2, VYYCF QGSHV PFTK]	high intensity fluorescence was measured only for the HBsAg antigen		+456%	25.5	35.2	+883%	2,452%	increase in the fluorescence intensity in the solution was observed depending on the concentration of the antigen									
FAM-VYYCAREPTGTGIYFDVWGK ({FAM}-VYYCAREPTGTGIYFDVWGK) [H2 switching peptide of Example 2]									high intensity fluorescence was measured only for the HBsAg antigen	increased as the concentration of HBsAg antigens of the detection sample solution increased							
VYYCAREPTGTGIYFDVWGK [H2, VYYCA REPTG TGIYF DVWGK]	high intensity fluorescence was measured only for the HBsAg antigen		+416%	14.8	63.9	+677%	2,356%	increase in the fluorescence intensity in the solution was observed depending on the concentration of the antigen			specificity for the antigen was relatively low	significantly higher fluorescence signal was generated when the Inf-B is treated	significantly higher fluorescence signal is generated when the Inf-A is treated				
TYLEWYPQKPGQSPKLLIYK [L1, TYLEW YPQKP GQSPK LLIYK]	high intensity fluorescence was measured only for the HBsAg antigen		+187%	12.7	48.7	+778%	1,032%	increase in the fluorescence intensity in the solution was observed depending on the concentration of the antigen				significantly higher fluorescence signal was generated when the Inf-B is treated	significantly higher fluorescence signal is generated when the Inf-A is treated	increased almost linearly as the concentration of the Influenza A antigen contained in the Influenza A sample solution increased	increased as the concentration of the SARS-COV-2 antigen contained in the SARS-COV-2 sample solution increased	increased almost linearly as the concentration of the HBsAg antigen contained in the HBsAg sample solution increased	FRET intensity increased with increasing the concentration of the L1 peptide
